Data taken from BindingDB's records for doi:10.1007/s00044-013-0797-8 (n/a, 2013).
Where “and” joins values, the source holds several entries; their conditions need not be identical. Equal entries are not always repeated.

Molecular target: T1, Tyrosine-protein phosphatase non-receptor type 1 (Homo sapiens, UniProt P18031)
T1 sequence (P18031 whole entry): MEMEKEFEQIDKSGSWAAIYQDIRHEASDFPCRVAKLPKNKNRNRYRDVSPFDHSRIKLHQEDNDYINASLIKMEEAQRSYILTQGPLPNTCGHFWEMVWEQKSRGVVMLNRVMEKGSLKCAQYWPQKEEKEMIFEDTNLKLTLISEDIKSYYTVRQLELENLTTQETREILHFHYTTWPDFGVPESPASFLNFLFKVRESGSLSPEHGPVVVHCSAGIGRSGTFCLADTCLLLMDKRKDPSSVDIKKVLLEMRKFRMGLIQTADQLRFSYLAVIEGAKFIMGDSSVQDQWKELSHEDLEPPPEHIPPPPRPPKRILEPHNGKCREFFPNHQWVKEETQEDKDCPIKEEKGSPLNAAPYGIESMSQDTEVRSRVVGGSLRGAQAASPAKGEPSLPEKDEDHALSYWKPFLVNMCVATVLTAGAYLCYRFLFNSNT
Test: Non-competitive reversible inhibition of human PTP1B

| SMILES | IC50 |
| --- | --- |
| CC1(C)Cc2c(nn(-c3cccc(C(F)(F)F)c3)c(=N)c2C#N)CO1 | 2.8 µM |
| CC1(C)Cc2c(nn(-c3ccccc3C(F)(F)F)c(=N)c2C#N)CO1 | 3.9 µM |
| CC1(C)Cc2c(nn(-c3cccc(CO)c3)c(=N)c2C#N)CO1 | 2.4 µM |
| CCc1cccc(-n2nc3c(c(C#N)c2=N)CC(C)(C)OC3)c1 | 8.2 µM |
| CC1(C)Cc2c(nn(-c3ccc(CCO)cc3)c(=N)c2C#N)CO1 | 2.9 µM |
| CC1(C)Cc2c(nn(-c3ccccc3F)c(=N)c2C#N)CO1 | 2.4 µM |
| CC(C)c1cccc(-n2nc3c(c(C#N)c2=N)CC(C)(C)OC3)c1 | 8.2 µM |
| CC1(C)Cc2c(nn(-c3ccccc3N3CCOCC3)c(=N)c2C#N)CO1 | 2.9 µM |
| N#Cc1c2c(nn(-c3ccc(F)cc3)c1=N)CSCC2 | 2 µM |
| CC(C)c1ccccc1-n1nc2c(c(C#N)c1=N)CCSC2 | 2 µM |

The next lines start with the values.

| IC50 | SMILES |
| --- | --- |
| 2.8 µM | CCc1ccc(-n2nc3c(c(C#N)c2=N)CC(C)(C)OC3)cc1 |
| 6.1 µM | CC(=O)Nc1ccc(-n2nc3c(c(C#N)c2=N)CC(C)(C)OC3)cc1 |
| 3.9 µM | CC1(C)Cc2c(nn(-c3cccc(Oc4ccccc4)c3)c(=N)c2C#N)CO1 |
| 6.19 µM and 6.2 µM | COc1ccccc1-n1nc2c(c(C#N)c1=N)CC(C)(C)OC2 |
| 7 µM | CCCCc1ccc(-n2nc3c(c(C#N)c2=N)CC(C)(C)OC3)cc1 |
